Measurements reported in patent publication US20110257168A1, “DERIVATIVES OF OXABISPIDINE AS NEURONAL NICOTINIC ACETYLCHOLINE RECEPTOR LIGANDS” (Targacept, Inc., priority 2008, published 2011).
Where two headings read alike, the source gives them in different places.

Columns and labels:
Human α7 = target: T1, Human α7 (Homo sapiens, UniProt P36544); assay: Competition binding to human α7 receptors in membrane preparations
T1 construct: host or cells: HEK cells co-expressing RIC3
Protocol: (§1) SH-EP1/human α4β2 (Eaton et al., 2003), SH-EP1/human α4β4 (Gentry et al., 2003), SH-EP1/α6β3β4α5 (Grinevich et al., 2005), TE671/RD and SH-SY5Y cell lines (obtained from Dr. Ron Lukas, Barrow Neurological Institute) were maintained in proliferative growth phase in Dulbecco's modified Eagle's medium (Gibco/BRL) with 10% horse serum (Gibco BRL), 5% fetal bovine serum (HyClone, Logan Utah), 1 mM sodium pyruvate, 4 mM L-glutamine. For maintenance of stable transfectants, the α4β2 and α4β4 cell media was supplemented with 0.25 mg/mL zeocin and 0.13 mg/mL hygromycin B. Selection was maintained for the α6β3β4α5 cells with 0.25 mg/mL of zeocin, 0.13 mg/mL of hygromycin B, 0.4 mg/mL of geneticin, and 0.2 mg/mL of blasticidin. HEK/human α7/RIC3 cells (obtained from J. Lindstrom, U. Pennsylvania) were maintained in proliferative growth phase in Dulbecco's modified Eagle's medium (Gibco/BRL) with 10% fetal bovine serum (HyClone, Logan Utah), 1 mM sodium pyruvate, 4 mM L-glutamine, 0.4 mg/mL geneticin; 0.2 mg/ml hygromycin B.
(§2) Preparation of membranes from rat tissues. Rat cortices were obtained from Analytical Biological Services, Incorporated (ABS, Wilmington, Del.). Tissues were dissected from female Sprague-Dawley rats, frozen and shipped on dry ice. Tissues were stored at −20° C. until needed for membrane preparation. Cortices from 10 rats were pooled and homogenized by Polytron (Kinematica GmbH, Switzerland) in 10 volumes (weight:volume) of ice-cold preparative buffer (KCl, 11 mM; KH2PO4, 6 mM; NaCl 137 mM; Na2HPO4 8 mM; HEPES (free acid), 20 mM; iodoacetamide, 5 mM; EDTA, 1.5 mM; 0.1 mM PMSF pH 7.4). The resulting homogenate was centrifuged at 40,000 g for 20 minutes at 4° C. and the resulting pellet was resuspended in 20 volumes of ice-cold water. After 60-minute incubation at 4° C., a new pellet was collected by centrifugation at 40,000 g for 20 minutes at 4° C. The final pellet was resuspended in preparative buffer and stored at −20° C. On the day of the assay, tissue was thawed, centrifuged at 40,000 g for 20 minutes and then resuspended in PBS (Dulbecco's Phosphate Buffered Saline, Life Technologies, pH 7.4) to a final concentration of 2-3 mg protein/mL. Protein concentrations were determined using the Pierce BCA Protein Assay kit (Pierce Biotechnology, Rockford, Ill.), with bovine serum albumin as the standard. Preparation of membranes from clonal cell lines. Cells were harvested in ice-cold PBS, pH 7.4, then homogenized with a polytron (Brinkmann Instruments, Westbury, N.Y.). Homogenates were centrifuged at 40,000 g for 20 minutes (4° C.). The pellet was resuspended in PBS and protein concentration determined using the Pierce BCA Protein Assay kit (Pierce Biotechnology, Rockford, Ill.).
(§3) Competition binding to receptors in membrane preparations. Binding to nicotinic receptors was assayed on membranes using standard methods adapted from published procedures (Lippiello and Fernandes, 1986; Davies et al., 1999). In brief, membranes were reconstituted from frozen stocks (approximately 0.2 mg protein) and incubated for 2 h on ice in […] assay buffer (PBS) in the presence of competitor compound (0.001 nM to […]) and radioligand. [^3H]-nicotine (L-(−)-[N-methyl-3H]-nicotine, 69.5 Ci/mmol, Perkin-Elmer Life Sciences) was used for human α4β2 binding studies. [^3H]-epibatidine (52 Ci/mmol, Perkin-Elmer Life Sciences) was used for binding studies at the other receptor subtypes. Incubation was terminated by rapid filtration on a multimanifold tissue harvester (Brandel, Gaithersburg, Md.) using GF/B filters presoaked in 0.33% polyethyleneimine (w/v) to reduce non-specific binding. Filters were washed 3 times and the radioactivity retained was determined by liquid scintillation counting.
(§4) Binding data analysis. Binding data were expressed as percent total control binding. Replicates for each point were averaged and plotted against the log of drug concentration. […]

human α4β2 = human α4β2 (Homo sapiens, UniProt P17787+P43681); assay: Competition binding to human α4β2 receptors in membrane preparations; conditions: membranes, [3H]-nicotine competition; Ki by Cheng-Prusoff; read-out: human α4β2 Ki
Protocol: as §1, §2, §3, §4

Rat α4β2 = target: T2, Rat α4β2 (Rattus norvegicus, UniProt P09483+P12390); assay: Competition binding to rat α4β2 receptors in membrane preparations
T2 construct: Preparation of membranes from rat tissues; Rat cortices were obtained from Analytical Biological Services; tissue Analytical Biological Services, Incorporated (ABS, Wilmington, Del.); host or cells: rat cortex membranes (female Sprague-Dawley)
Protocol: as §2, §3
(§5) Binding data analysis. Binding data were expressed as percent total control binding. Replicates for each point were averaged and plotted against the log of drug concentration. The IC50 (concentration of the compound that produces 50% inhibition of binding) was determined by least squares non-linear regression using GraphPad Prism software (GraphPAD, San Diego, Calif.). Ki was calculated using the Cheng-Prusoff equation (Cheng and Prusoff, 1973).

Rat α7 = target: T3, Rat α7 (Rattus norvegicus, UniProt Q05941); assay: Competition binding to rat α7 receptors in membrane preparations
T3 construct: Preparation of membranes from rat tissues; Rat cortices were obtained from Analytical Biological Services; tissue Analytical Biological Services, Incorporated (ABS, Wilmington, Del.); host or cells: rat brain membranes (only cortex is described)
Protocol: as §2, §3, §5

male ICR mice = assay: Formalin test (2.5%) in mice; assay type: in vivo
Protocol: The formalin test in mice is a valid and reliable model of nociception and is sensitive for various classes of analgesic drugs. The noxious stimulus is an injection of dilute formalin (1% in saline) under the skin of the dorsal surface of the right hindpaw. The response is the amount of time the animals spend licking the injected paw. Two distinct periods of high licking activity can be identified, an early phase lasting the first 5 min and a late phase lasting from 20 to 30 min after the injection of formalin. See, Hunskaar et al., Pain, 1987, July; 30(1):103-14, incorporated by reference with regard to the test.
A formalin test was carried out in an open Plexiglas cage, with a mirror placed under the floor to allow an unobstructed view of the paws. Mice were allowed to acclimate for 15 min in the test cage before formalin injection. Each animal was injected with 20 μl of 2.5% formalin in the intraplantar region of the right hindpaw. Mice were then observed 0-5 min (Phase 1) and 20-45 min (Phase 2) post-formalin, and the amount of time spent (expressed in sec) licking the injected paw was recorded. Compound A or vehicle were injected s.c. 15 min before the formalin injection.
FIG. 1 illustrates the effects of Compound A in the formalin test (2.5%) in male ICR mice. As described, subject mice were pretreated with an s.c. injection of Compound A and 15 minutes later received formalin ipl. […] The lowest active dose was 3 mg/kg.

[1] = membranes, [3H]-epibatidine competition, Ki by Cheng-Prusoff, read-out: Human α7 Ki
[2] = membranes, [3H]-epibatidine competition, Ki by Cheng-Prusoff, read-out: Rat α7 Ki

Compound	Ki (Human α7; [1]) [nM]	Ki (human α4β2) [nM]	Ki (Rat α4β2) [nM]	Ki (Rat α7; [2]) [nM]	Ki (Human α7) [nM]	Ki (Rat α7) [nM]	nociceptive behavior (time licking the injected paw), Phase 1 (male ICR mice; 0-5 min post-formalin, s.c. 15 min before formalin, F(1,35)=41.8, P<0.0001)	nociceptive behavior (time licking the injected paw), Phase 2 (male ICR mice; 20-45 min post-formalin, s.c. 15 min before formalin, F(1,35)=24.8, P<0.0001)	lowest active dose (male ICR mice; formalin test, s.c. administration) [mg/kg]	effects in formalin test in presence of mecamylamine (male ICR mice; mecamylamine 2 mg/kg)
c1cncc(N2CC3CNCC(C2)O3)c1 [3-(pyridin-3-yl)-9-oxa-3,7-diazabicyclo[3.3.1]nonane]	670	1.1	3.9	650	–	–	–	–	–	–
c1ncc(N2CC3CNCC(C2)O3)cn1 [3-(pyrimidin-5-yl)-9-oxa-3,7-diazabicyclo[3.3.1]nonane]	2900	7.6	8	3200	–	–	–	–	–	–
Fc1cncc(N2CC3CNCC(C2)O3)c1 [Compound A, 3-(5-fluoropyridin-3-yl)-9-oxa-3,7-diazabicyclo[3.3.1]nonane]	–	1.8	1.3	–	76	36	significantly reduced	significantly reduced	3	blocked
